According to ChEMBL document CHEMBL5537150, “Synthesis of melampomagnolide B derivatives as potential anti-Triple Negative Breast Cancer agents” (Eur J Med Chem, 2024):
Active and inactive are the calls of the source. The calls are words filed in the database; no cut-off is given here.

Columns and labels:
MDA-MB-231 [1] = test: Antiproliferative activity against human MDA-MB-231 cells assessed as inhibition of cell growth incubated for 72 hrs by MTT assay; assay type: functional, cell-based; conditions: MDA-MB-231, 72 h
MDA-MB-468 [2] = test: Antiproliferative activity against human MDA-MB-468 cells assessed as inhibition of cell growth incubated for 72 hrs by MTT assay; assay type: functional, cell-based; conditions: MDA-MB-468, 72 h
MCF7 = test: Antiproliferative activity against human MCF7 cells assessed as inhibition of cell growth incubated for 72 hrs by MTT assay; assay type: functional, cell-based; conditions: MCF7, 72 h
4T1 [3] = test: Antiproliferative activity against mouse 4T1 cells assessed as inhibition of cell growth incubated for 72 hrs by MTT assay; assay type: functional, cell-based; conditions: 4T1, 72 h
MDA-MB-468 [4] = test: Antimigratory activity in human MDA-MB-468 cells assessed as reduction in number of migrated cells incubated for 48 hrs by crystal violet staining based transwell assay; assay type: functional, cell-based
MDA-MB-468 [5] = test: Antimigratory activity in human MDA-MB-468 cells assessed as downregulation of N-cadherin protein expression incubated for 48 hrs by Western blotting analysis; assay type: functional, cell-based
MDA-MB-231 [6] = test: Antimigratory activity in human MDA-MB-231 cells assessed as downregulation of N-cadherin protein expression incubated for 48 hrs by Western blotting analysis; assay type: functional, cell-based
MDA-MB-231 [7] = test: Antimigratory activity in human MDA-MB-231 cells assessed as downregulation of Vimentin protein expression incubated for 48 hrs by Western blotting analysis; assay type: functional, cell-based
MDA-MB-468 [8] = test: Induction of apoptosis in human MDA-MB-468 cells at 0.2 uM incubated for 48 hrs by annexin-V-APC/PI staining based flow cytometric analysis (reference value: 5.38 +/- 1.63 %); assay type: functional
MDA-MB-468 [9] = test: Induction of apoptosis in human MDA-MB-468 cells at 0.5 uM incubated for 48 hrs by annexin-V-APC/PI staining based flow cytometric analysis (reference value: 5.38 +/- 1.63 %); assay type: functional
MDA-MB-231 [10] = test: Induction of apoptosis in human MDA-MB-231 cells at 0.5 uM incubated for 48 hrs by annexin-V-APC/PI staining based flow cytometric analysis (reference value: 1.81 +/- 0.47 %); assay type: functional
MDA-MB-231 [11] = test: Induction of apoptosis in human MDA-MB-231 cells at 1 uM incubated for 48 hrs by annexin-V-APC/PI staining based flow cytometric analysis (reference value: 1.81 +/- 0.47 %); assay type: functional
MDA-MB-231 [12] = test: Induction of apoptosis in human MDA-MB-231 cells at 2 uM incubated for 48 hrs by annexin-V-APC/PI staining based flow cytometric analysis (reference value: 1.81 +/- 0.47 %); assay type: functional
MDA-MB-231 [13] = test: Induction of apoptosis in human MDA-MB-231 cells at 5 uM incubated for 48 hrs by annexin-V-APC/PI staining based flow cytometric analysis (reference value: 1.81 +/- 0.47 %); assay type: functional
MDA-MB-231 [14] = test: Induction of apoptosis in human MDA-MB-231 cells assessed as downregulation of BCL-2 protein expression incubated for 48 hrs by Western blotting analysis; assay type: functional, cell-based
MDA-MB-231 [15] = test: Induction of apoptosis in human MDA-MB-231 cells assessed as downregulation of BCL-xl protein expression incubated for 48 hrs by Western blotting analysis; assay type: functional, cell-based
MDA-MB-231 [16] = test: Induction of apoptosis in human MDA-MB-231 cells assessed as upregulation of Bax protein expression incubated for 48 hrs by Western blotting analysis; assay type: functional, cell-based
MDA-MB-468 [17] = test: Induction of cell cycle arrest in human MDA-MB-468 cells assessed as decrease in accumulation of cells at G1 phase at 0.2 to 2 uM incubated for 48 hrs by RNase/PI staining based flow cytometric analysis; assay type: functional; conditions: dose 0.2-2 µM
MDA-MB-468 [18] = test: Induction of cell cycle arrest in human MDA-MB-468 cells assessed as increase in accumulation of cells at S phase at 0.2 to 2 uM incubated for 48 hrs by RNase/PI staining based flow cytometric analysis; assay type: functional; conditions: dose 0.2-2 µM
MDA-MB-468 [19] = test: Induction of cell cycle arrest in human MDA-MB-468 cells assessed as increase in accumulation of cells at G2/M phase at 0.2 to 2 uM incubated for 48 hrs by RNase/PI staining based flow cytometric analysis; assay type: functional; conditions: dose 0.2-2 µM
MDA-MB-231 [20] = test: Induction of cell cycle arrest in human MDA-MB-231 cells assessed as decrease in accumulation of cells at G1 phase at 0.2 to 2 uM incubated for 48 hrs by RNase/PI staining based flow cytometric analysis; assay type: functional; conditions: dose 0.2-2 µM
MDA-MB-231 [21] = test: Induction of cell cycle arrest in human MDA-MB-231 cells assessed as increase in accumulation of cells at G2/M phase at 0.2 to 2 uM incubated for 48 hrs by RNase/PI staining based flow cytometric analysis; assay type: functional; conditions: dose 0.2-2 µM
MDA-MB-468 [22] = test: Induction of cell cycle arrest in human MDA-MB-468 cells assessed as downregulation of Cdc2 protein expression incubated for 48 hrs by Western blotting analysis; assay type: functional, cell-based
MDA-MB-468 [23] = test: Induction of cell cycle arrest in human MDA-MB-468 cells assessed as downregulation of Cdc25c protein expression incubated for 48 hrs by Western blotting analysis; assay type: functional, cell-based
MDA-MB-468 [24] = test: Induction of cell cycle arrest in human MDA-MB-468 cells assessed as downregulation of Cyclin B1 protein expression incubated for 48 hrs by Western blotting analysis; assay type: functional, cell-based
MDA-MB-468 [25] = test: Induction of cell cycle arrest in human MDA-MB-468 cells assessed as downregulation of Cyclin E1 protein expression incubated for 48 hrs by Western blotting analysis; assay type: functional, cell-based
MDA-MB-231 [26] = test: Induction of cell cycle arrest in human MDA-MB-231 cells assessed as downregulation of Cdc2 protein expression incubated for 48 hrs by Western blotting analysis; assay type: functional, cell-based
MDA-MB-231 [27] = test: Induction of cell cycle arrest in human MDA-MB-231 cells assessed as downregulation of Cdc25c protein expression incubated for 48 hrs by Western blotting analysis; assay type: functional, cell-based
MDA-MB-231 [28] = test: Induction of cell cycle arrest in human MDA-MB-231 cells assessed as downregulation of Cyclin B1 protein expression incubated for 48 hrs by Western blotting analysis; assay type: functional, cell-based
MDA-MB-231 [29] = test: Inhibition of NF-kappaB signalling pathway in human MDA-MB-231 cells assessed as downregulation of IkappaBalpha phosphorylation at 0.5 to 2 uM incubated for 48 hrs by Western blotting analysis; assay type: cell-based; conditions: dose 0.5-2 µM
MDA-MB-231 [30] = test: Inhibition of NF-kappaB signalling pathway in human MDA-MB-231 cells assessed as effect on total p65 protein level at 0.2 to 2 uM incubated for 48 hrs by Western blotting analysis; assay type: cell-based; conditions: dose 0.2-2 µM
MDA-MB-231 [31] = test: Inhibition of NF-kappaB signalling pathway in human MDA-MB-231 cells assessed as downregulation of nuclear p65 expression at 0.2 to 2 uM incubated for 48 hrs by Western blotting analysis; assay type: cell-based; conditions: dose 0.2-2 µM
MDA-MB-231 [32] = test: Inhibition of NF-kappaB signalling pathway in human MDA-MB-231 cells assessed as inhibition of p65 nuclear translocation at 0.2 to 2 uM incubated for 48 hrs by Western blotting analysis; assay type: cell-based; conditions: dose 0.2-2 µM
4T1 [33] = test: Antitumor activity against mouse 4T1 cells implanted in Balb/c mouse assessed as inhibition of tumor weight at 10 mg/kg,ip administrated every two days for 20 days; assay type: functional, organism-based; conditions: time 20.0 day
4T1 [34] = test: Antitumor activity against mouse 4T1 cells implanted in Balb/c mouse assessed as decrease in spleen weight at 10 mg/kg,ip administrated every two days for 20 days; assay type: functional, organism-based; conditions: time 20.0 day

IC50 (MDA-MB-231 [1]): 890 nM
IC50 (MDA-MB-468 [2]): 1520 nM
IC50 (MCF7): 3840 nM
IC50 (4T1 [3]): 1180 nM
Compound: C=C1C(=O)O[C@H]2[C@H]1CC/C(COc1ccc(-c3cc(=S)ss3)cc1)=C\CC[C@@]1(C)O[C@@H]21
Activity (MDA-MB-468 [4]): Dose-Dependent Effect
Activity (MDA-MB-468 [5]): Dose-Dependent Effect
Activity (MDA-MB-231 [6]): Dose-Dependent Effect
Activity (MDA-MB-231 [7]): Dose-Dependent Effect
Activity (MDA-MB-468 [8]): 4.32%
Activity (MDA-MB-468 [9]): 5.77%
Activity (MDA-MB-231 [10]): 2.3%
Activity (MDA-MB-231 [11]): 11.6%
Activity (MDA-MB-231 [12]): 48.24%
Activity (MDA-MB-231 [13]): 71.28%
Activity (MDA-MB-231 [14]): Dose-Dependent Effect
Activity (MDA-MB-231 [15]): Dose-Dependent Effect
Activity (MDA-MB-231 [16]): Dose-Dependent Effect
Activity (MDA-MB-468 [17]): Active
Activity (MDA-MB-468 [18]): Active
Activity (MDA-MB-468 [19]): Active
Activity (MDA-MB-231 [20]): Active
Activity (MDA-MB-231 [21]): Active
Activity (MDA-MB-468 [22]): Dose-Dependent Effect
Activity (MDA-MB-468 [23]): Dose-Dependent Effect
Activity (MDA-MB-468 [24]): Dose-Dependent Effect
Activity (MDA-MB-468 [25]): Dose-Dependent Effect
Activity (MDA-MB-231 [26]): Dose-Dependent Effect
Activity (MDA-MB-231 [27]): Dose-Dependent Effect
Activity (MDA-MB-231 [28]): Dose-Dependent Effect
inhibition (MDA-MB-231 [29]): Active
inhibition (MDA-MB-231 [30]): inactive
inhibition (MDA-MB-231 [31]): Active
inhibition (MDA-MB-231 [32]): Active
Activity (4T1 [33]): Active
Activity (4T1 [34]): Active
